Reference: patent US9771376B2 (GENENTECH, INC., priority 2000, dated 2017)

Molecular target: human NaV1.7 (Homo sapiens (Human), UniProt Q15858)
Test: Patch voltage clamp electrophysiology assay, NaV1.7
Type: cell-based
Settings: inactivated state; HEK-293 cells stably expressing NaV1.7 with β1 subunit; held at −60 mV; read-out: Human 1.7 EP (IC50 μM)

Chain of human NaV1.7 (Q15858 other isoform, or with tags, fused parts or gaps): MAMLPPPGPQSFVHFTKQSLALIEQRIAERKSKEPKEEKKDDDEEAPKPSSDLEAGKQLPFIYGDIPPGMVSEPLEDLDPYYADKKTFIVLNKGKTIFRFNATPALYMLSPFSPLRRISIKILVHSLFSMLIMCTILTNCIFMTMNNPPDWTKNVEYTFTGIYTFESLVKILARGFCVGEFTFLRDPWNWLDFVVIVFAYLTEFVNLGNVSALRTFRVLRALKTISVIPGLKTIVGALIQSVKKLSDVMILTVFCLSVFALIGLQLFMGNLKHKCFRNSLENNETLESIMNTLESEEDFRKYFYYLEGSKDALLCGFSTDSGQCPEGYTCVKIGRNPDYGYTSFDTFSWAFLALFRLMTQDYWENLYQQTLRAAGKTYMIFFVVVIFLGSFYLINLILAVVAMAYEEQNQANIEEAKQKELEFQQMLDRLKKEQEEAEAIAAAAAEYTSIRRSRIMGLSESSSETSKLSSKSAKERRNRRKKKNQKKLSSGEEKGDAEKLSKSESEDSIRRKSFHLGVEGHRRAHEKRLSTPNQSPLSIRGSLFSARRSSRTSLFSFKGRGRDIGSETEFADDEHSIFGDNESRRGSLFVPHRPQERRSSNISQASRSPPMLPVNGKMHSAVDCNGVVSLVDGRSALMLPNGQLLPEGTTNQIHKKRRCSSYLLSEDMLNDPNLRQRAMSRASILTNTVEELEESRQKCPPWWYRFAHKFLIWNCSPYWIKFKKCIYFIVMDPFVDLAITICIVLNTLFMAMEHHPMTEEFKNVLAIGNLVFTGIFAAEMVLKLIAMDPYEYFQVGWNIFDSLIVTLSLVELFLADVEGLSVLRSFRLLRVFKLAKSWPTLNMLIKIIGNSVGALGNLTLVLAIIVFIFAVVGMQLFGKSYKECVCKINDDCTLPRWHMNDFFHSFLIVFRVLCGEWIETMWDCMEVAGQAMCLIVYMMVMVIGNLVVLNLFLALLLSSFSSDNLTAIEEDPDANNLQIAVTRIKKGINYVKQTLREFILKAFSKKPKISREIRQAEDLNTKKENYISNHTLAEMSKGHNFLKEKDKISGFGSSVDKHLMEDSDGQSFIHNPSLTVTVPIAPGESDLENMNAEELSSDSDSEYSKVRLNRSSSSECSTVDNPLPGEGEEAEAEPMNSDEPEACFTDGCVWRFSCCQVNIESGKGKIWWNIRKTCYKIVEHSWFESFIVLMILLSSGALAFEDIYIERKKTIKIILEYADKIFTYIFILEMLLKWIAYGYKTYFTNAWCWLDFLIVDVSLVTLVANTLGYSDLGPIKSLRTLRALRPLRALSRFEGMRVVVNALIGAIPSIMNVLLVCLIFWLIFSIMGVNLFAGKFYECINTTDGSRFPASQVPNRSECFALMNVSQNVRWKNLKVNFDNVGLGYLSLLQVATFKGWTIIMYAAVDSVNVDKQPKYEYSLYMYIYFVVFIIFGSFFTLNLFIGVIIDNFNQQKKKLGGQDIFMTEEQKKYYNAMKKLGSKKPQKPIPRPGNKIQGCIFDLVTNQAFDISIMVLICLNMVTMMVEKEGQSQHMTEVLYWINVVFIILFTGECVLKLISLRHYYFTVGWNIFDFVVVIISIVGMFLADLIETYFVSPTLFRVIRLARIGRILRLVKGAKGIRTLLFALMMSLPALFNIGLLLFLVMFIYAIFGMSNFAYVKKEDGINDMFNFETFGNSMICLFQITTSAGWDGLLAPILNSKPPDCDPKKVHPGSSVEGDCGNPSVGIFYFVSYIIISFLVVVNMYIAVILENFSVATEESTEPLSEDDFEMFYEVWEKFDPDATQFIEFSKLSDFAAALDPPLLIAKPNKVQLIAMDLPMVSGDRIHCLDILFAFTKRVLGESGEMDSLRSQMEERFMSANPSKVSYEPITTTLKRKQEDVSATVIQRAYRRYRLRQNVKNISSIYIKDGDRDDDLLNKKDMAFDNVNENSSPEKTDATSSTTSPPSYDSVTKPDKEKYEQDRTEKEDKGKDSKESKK
Chain of human NaV1.7 (Q07699 19-218 partner): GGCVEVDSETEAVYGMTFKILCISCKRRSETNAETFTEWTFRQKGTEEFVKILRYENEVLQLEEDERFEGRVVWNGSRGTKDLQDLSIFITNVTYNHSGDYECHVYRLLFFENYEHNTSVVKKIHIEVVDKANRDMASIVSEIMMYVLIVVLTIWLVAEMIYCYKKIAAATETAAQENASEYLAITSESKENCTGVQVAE

Compound | IC50 [µM]
4-(1-(adamantan-1-yl)ethoxy)-5-chloro-2-fluoro-N-(methylsulfonyl)benzamide [Example 19] | 0.0386
4-(2-(adamantan-1-yl)ethoxy)-3-chloro-N-(methylsulfonyl)benzamide [Example 13] | 0.123
4-(adamantan-1-ylmethoxy)-5-chloro-N-(N,N-dimethylsulfamoyl)-2-fluorobenzamide [Example 28] | 2.25
4-(bicyclo[2.2.1]heptan-2-yloxy)-5-chloro-2-fluoro-N-(methylsulfonyl)-benzamide [Example 145] | 0.0036
5-Chloro-2-fluoro-N-(methylsulfonyl)-4-((2,2,3,3-tetramethylcyclopropyl)-methoxy)benzamide [Example 34] | 0.0658
5-chloro-2-fluoro-N-(methylsulfonyl)-4-((1-(trifluoromethyl)cyclopropyl)-methoxy)benzamide [Example 36] | 0.0077
5-chloro-4-(3-cyclohexylpropoxy)-N-(N,N-dimethylsulfamoyl)-2-fluorobenzamide [Example 82] | 0.0416
CC1(C)C2CCC1(C)C(Oc1cc(F)c(C(=O)NS(C)(=O)=O)cc1Cl)C2 (stereo not drawn) [Example 15, 5-chloro-2-fluoro-N-(methylsulfonyl)-4-((exo-1,7,7-trimethylbicyclo[2.2.1]heptan-2-yl)oxy)benzamide] | 0.171
CS(=O)(=O)NC(=O)c1cc(Cl)c(OC2[C@@H]3CC4C[C@H]2CC(Cl)(C4)C3)cc1F (stereo partly drawn) [Example 25, 5-chloro-4-(((1R,2r,3S,5s,7s)-5-chloroadamantan-2-yl)oxy)-2-fluoro-N-(methylsulfonyl)benzamide] | 0.027
CN(C)S(=O)(=O)NC(=O)c1cc(Cl)c(OC2CCC3(CCCCC3)CC2)cc1F [Example 79] | 0.0854
CN(C)S(=O)(=O)NC(=O)c1cc(Cl)c(OCC23CC4CC(CC(F)(C4)C2)C3)cc1F [Example 86, 5-chloro-N-(N N-dimethylsulfamoyl)-2-fluoro-4-((3-fluoroadamantan-1-yl)methoxy)benzamide] | 0.00131

Molecular target: human NaV1.5 (Homo sapiens (Human), UniProt Q14524)
Test: Patch voltage clamp electrophysiology assay, NaV1.5
Settings: read-out: Human 1.5 EP IC50 μM; inactivated state; HEK-293 cells stably expressing NaV1.5 with β1 subunit; held at −60 mV

Compound | IC50 [µM]
4-(adamantan-1-ylmethoxy)-5-chloro-2-fluoro-N-(methylsulfonyl)benzamide [Example 8] | 1.07
